Laboratory results from article PMC7766155, “Improved Stability and Activity of a Marine Peptide-N6NH2 against Edwardsiella tarda and Its Preliminary Application in Fish” (Marine Drugs, 2020).
≈ marks a conversion by molar mass, not a printed value. Where “and” joins values, the source holds several entries; their conditions need not be identical. Equal entries are not always repeated. Where two headings read alike, the source gives them in different places. Where a SMILES comes first, the peptide text is derived from it. Bridges are numbered along the chain shown (N, C = ends).

Key:
[1] = system: E. tarda; experiment: Kirby-Bauer disk diffusion susceptibility; type: cell-based, Edwardsiella tarda; details: disc diffusion, MHA, 37 °C 18 h, CLSI standard; 27 antibiotics; Supplementary Table S2
Procedure: The susceptibility of E. tarda to antibiotics was determined by the Kirby-Bauer disk diffusion method according to Clinical Laboratory Standards Institute (CLSI). E. tarda was cultured in TSB medium (10 mL) at 28 °C overnight. The MHA petri dish plates were seeded with a 250 μL bacterial solution (OD600nm = 1.0). […] The diameter of the bacterial inhibition zone was measured, and the results were determined according to the standard of CLSI.

[2] = LPS binding, BODIPY-TR-cadaverine displacement; set-up: species or system E. coli; details: 0.5 µM LPS, 5 μM BC, Tris buffer pH 7.4; 0.049 μM to 50 μM; excitation/emission 580/620 nm
[3] = system: RAW 264.7 macrophages; type: cell-based, mouse; details: 48 h
Procedure: The colorimetric MTT assay was used to determine the effect of peptides on the viability of murine peritoneal RAW 264.7 macrophage cells. Macrophage cells were added into 96-well plates (5 × 10^3 cells/well) and incubated for 24 h at 37 °C (5% (v/v) CO2/air). A series of peptide solutions were added into the cells and incubated for 48 h. The untreated cells were used as the control (Acontrol). The MTT solution was added into plates, incubated for 4 h, and then removed from plates. Dimethyl sulfoxide (DMSO) was then added into plates and the absorbance was measured at 570 nm in a spectrophotometer. The cell viability was calculated using the following formula: Survival rate (%) = […] × 100.

[4] = system: E. tarda; type: cell-based, Edwardsiella tarda
Procedure: (§1) All tests were conducted in triplicate.

[5] = system: Staphylococcus hyicus; experiment: microbe, parasite or virus in culture; type: cell-based
Procedure: as §1

[6] = system: Gram-negative bacteria (except Pseudomonas aeruginosa CICC21630); experiment: MIC, range over strains; type: cell-based; details: range over Gram-negative strains of Table 2
Procedure: as §1

[7] = system: E. tarda and A. veronii; type: cell-based
Procedure: as §1

[8] = system: E. coli CVCC1515; details: CVCC1515
[9] = system: E. coli CVCCO157; details: broth microdilution, MHB, 1 × 10^5 CFU/mL, 37 °C 18–24 h, n = 3; some N6 data from ref 19
[10] = system: S. enteritidis CVCC3377; details: CVCC3377
[11] = system: S. pullorum CVCC1789; details: CVCC1789
[12] = system: Pseudomonas aeruginosa CICC21630; details: CICC21630
[13] = system: Staphylococcus aureus ATCC43300; details: ATCC43300
[14] = system: S. aureus ATCC546; details: ATCC546
[15] = system: S. aureus ATCC25923; details: ATCC25923
[16] = system: S. hyicus 437-2
[17] = system: S. hyicus 15095
[18] = system: E. tarda; experiment: Thermal stability (residual antibacterial activity, inhibition zone); type: physicochemical, Edwardsiella tarda; details: incubated 1 h at 20, 40, 60, 80 or 100 °C; N6NH2 64 μg/mL, norfloxacin 10 μg/mL; inhibition zone method; triplicate
Procedure: (§2) To evaluate the thermal stability of peptides, N6 and N6NH2 were incubated for 1 h at 4, 20, 40, 60, 80 and 100 °C. To measure the pH stability, peptides were incubated for 3 h in 100 mM glycine-HCl buffer (pH 2.0), sodium acetate buffer (pH 4.0), sodium phosphate buffer (pH 6.0), Tris-HCl buffer (pH 8.0) or glycine-NaOH buffer (pH 10.0). In addition, peptides were incubated for 4 h at 37 °C in pepsin (3,000 U/mg, pH 2.0) and trypsin (250 U/mg, pH 8.0) (10:1, w/w) solutions, respectively. […] After treatment, 30 μL of solutions were taken out to determine the antibacterial activity of peptides against E. tarda by the inhibition zone method. The untreated peptides were used as the control. All tests were conducted in triplicate.

[19] = system: E. tarda; experiment: pH stability (residual antibacterial activity, inhibition zone); type: physicochemical, Edwardsiella tarda; details: pH values of 2–10, 3 h incubation; N6 128 μg/mL, norfloxacin 10 μg/mL; inhibition zone method vs E. tarda
Procedure: as §2

[20] = system: inner membrane of E. tarda; experiment: Inner membrane penetration, PI staining, flow cytometry; type: cell-based, Edwardsiella tarda; details: norfloxacin-treated control, all time points of Figure 3B
Procedure: After washing twice with PBS, the cells were incubated with PI (50 μg/mL) for 15 min and analyzed using a FACS Calibur Flow Cytometer (BD, San Jose, CA, USA).

[21] = system: E. tarda cells; experiment: TEM ultrastructure; type: cell-based, Edwardsiella tarda; details: 4 × MIC for 2 h, 1 × 10^8 CFU/mL
Procedure: Mid-log phase E. tarda cells (1 × 10^8 CFU/mL) were incubated with 4 × MIC N6 or N6NH2 for 2 h at 37 °C. The bacterial cells were then centrifuged, washed three times with 0.1 M PBS (pH 7.2) and fixed overnight at 4 °C with 2.5% glutaraldehyde. After washing twice with PBS, the cells were post-fixed with 1% osmium tetroxide (OsO4) for 2 h, dehydrated in a graded ethanol series (from 50% to 100%) for 15 min each time and dried by CO2. The cell samples were sputtered with gold-palladium and observed on a QUANTA200 electron microscopy (FEI, Philips, The Netherlands).
The bacterial cells were treated with peptides as described above, fixed with 2.5% glutaraldehyde at 4 °C overnight and post-fixed with 1% OsO4 for 1 h. After washing three times with PBS, the cells were dehydrated with a graded acetone series (50%, 70%, 85%, 95% and 100%, for 7 min each time) and immersed in mixtures of acetone and resin (3:1, 1:1 and 1:3, 40 min each time). The samples were infiltrated with a pure epoxy resin overnight, embedded in capsules containing embedding medium and polymerized at 45 °C for 3 h and at 65 °C for 24 h, respectively. Thin sections were cut using an ultramicrotome, stained with 1% uranyl acetate and examined by a JEM1400 (JEDL, Tokyo, Japan).

[22] = system: E. tarda; experiment: Fish peritonitis model, survival; type: in vivo, O. niloticus; details: 1.29 mg/kg norfloxacin i.p. once
Procedure: The fish (O. niloticus, Gift strain, 20 g mean weight) were purchased from Beijing Fisheries Technology Extension Center, Hainan Station, China and were acclimated at 25 ± 1 °C. The fish were fed twice daily with commercial pellets for two weeks before experiments.
O. niloticus (6 fish/group) were intraperitoneally injected with LC100 of E. tarda, followed 30 min later by 200 µL N6NH2 (2.5, 5, and 10 mg/kg, respectively). Norfloxacin was used as a positive control. Fish injected with only bacteria or saline served as negative (untreated) or blank (unchallenged) controls, respectively. […] The fish survival rate was recorded daily for 5 d. Two independent experiments were conducted, including pre-experiment and formal experiment.

[23] = system: E. tarda; experiment: Fish peritonitis model, bacterial translocation (organ load); type: in vivo, O. niloticus; details: 1.29 mg/kg norfloxacin i.p. once; 24 h after treatment
Procedure: Sixty fish were randomly divided into 6 groups (10 fish/group). […] The remaining untreated group served as negative control. The fish injected with saline were used as the blank control. The challenge and treatment were performed as described above. […] Other fish were used to analyze the effects on tissues and immune genes.

[24] = system: E. tarda; experiment: Fish peritonitis model, histopathology; type: in vivo, O. niloticus; details: N6NH2 (10 mg/kg) or norfloxacin 1.29 mg/kg; hematoxylin and eosin, light microscope; 3 fish/group
Procedure: The spleen, kidney, liver, intestine and brain samples (3 fish/group) were used for tissue section observation. After 24 h of fixation, all samples were dehydrated with 75–95% ethanol, embedded in paraffin and cut to 6 μm thin sections. Sections were stained with hematoxylin and eosin and observed by a light microscope.

[25] = system: Escherichia coli, S. typhimurium, S. enteritidis and S. pullorum; experiment: organism not typed; type: cell-based; details: range over other Gram-negative strains of Table 2; read-out: MIC
Procedure: as §1

[26] = system: Edwardsiella tarda; experiment: MIC, broth microdilution

For O=C1OCCN1/N=C/c1ccc([N+](=O)[O-])o1 [furazolidone], which “susceptibility of E. tarda to antibiotics” value (shortened to “susceptibility of E. tarda”) [1] is on record?
The value was “resistance”.

Which “binding to LPS (displacement of BC probe)” value [2] does the source give for CC1(C)S[C@@H]2[C@H](NC(=O)[C@H](N)c3ccccc3)C(=O)N2[C@H]1C(=O)O [ampicillin, reference compound] here?
The value was “neither ampicillin nor norfloxacin replaced the BC probe or bound to LPS”.

Which cell survival rate [3] does the source give for CC(C)[C@@H]1NC(=O)CNC(=O)[C@H](CC(N)=O)NC(=O)[C@H](CCCNC(=N)N)NC(=O)[C@H](Cc2ccc(O)cc2)NC(=O)[C@H](C(C)C)NC(=O)[C@@H](NC(=O)[C@@H](NC(=O)[C@H](CC(N)=O)NC(=O)[C@H](Cc2c[nH]c3ccccc23)NC(=O)[C@H](C)NC(=O)[C@H](Cc2ccccc2)NC(=O)CN)C(C)C)CSSC[C@@H](C(=O)N[C@@H](Cc2cnc[nH]2)C(=O)N[C@@H](CCCNC(=N)N)C(=O)N[C@@H](CCCNC(=N)N)C(=O)N[C@@H](C)C(=O)N[C@@H](CC(N)=O)C(N)=O)NC(=O)[C@H](C(C)C)NC(=O)[C@H](CCCNC(=N)N)NC1=O [Peptide N6NH2] (H-GFAWNVCVYRNGVRVCHRRAN-NH2; disulfide 7-16) here?
The cell survival rate was greater than 93.35%.

Which cell survival rate [3] does the source give for CC(C)[C@@H]1NC(=O)CNC(=O)[C@H](CC(N)=O)NC(=O)[C@H](CCCNC(=N)N)NC(=O)[C@H](Cc2ccc(O)cc2)NC(=O)[C@H](C(C)C)NC(=O)[C@@H](NC(=O)[C@@H](NC(=O)[C@H](CC(N)=O)NC(=O)[C@H](Cc2c[nH]c3ccccc23)NC(=O)[C@H](C)NC(=O)[C@H](Cc2ccccc2)NC(=O)CN)C(C)C)CSSC[C@@H](C(=O)N[C@@H](Cc2cnc[nH]2)C(=O)N[C@@H](CCCNC(=N)N)C(=O)N[C@@H](CCCNC(=N)N)C(=O)N[C@@H](C)C(=O)N[C@@H](CC(N)=O)C(=O)O)NC(=O)[C@H](C(C)C)NC(=O)[C@H](CCCNC(=N)N)NC1=O [Peptide N6] (H-GFAWNVCVYRNGVRVCHRRAN-OH; disulfide 7-16) here?
The cell survival rate was greater than 93.35%.

Which “susceptibility of E. tarda” value [1] does the source give for CC1(C)S[C@@H]2[C@H](NC(=O)[C@H](N)c3ccc(O)cc3)C(=O)N2[C@H]1C(=O)O [amoxicillin] here?
The value was “resistance”.

With CC(C)[C@@H]1NC(=O)CNC(=O)[C@H](CC(N)=O)NC(=O)[C@H](CCCNC(=N)N)NC(=O)[C@H](Cc2ccc(O)cc2)NC(=O)[C@H](C(C)C)NC(=O)[C@@H](NC(=O)[C@@H](NC(=O)[C@H](CC(N)=O)NC(=O)[C@H](Cc2c[nH]c3ccccc23)NC(=O)[C@H](C)NC(=O)[C@H](Cc2ccccc2)NC(=O)CN)C(C)C)CSSC[C@@H](C(=O)N[C@@H](Cc2c[nH]cn2)C(=O)N[C@@H](CCCNC(=N)N)C(=O)N[C@@H](CCCNC(=N)N)C(=O)N[C@@H](C)C(=O)N[C@@H](CC(N)=O)C(N)=O)NC(=O)[C@H](C(C)C)NC(=O)[C@H](CCCNC(=N)N)NC1=O [Peptide N6NH2] (H-GFAWNVCVYRNGVRVCHRRAN-NH2; disulfide 7-16) as the molecule, how does the MBC [4] read?
The MBC was 6.4 µg/mL (≈ 2.59 µM).

What about the MIC [5] of the same molecule?
The MIC was 3.2 to 12.8 µg/mL.

What about the MIC [6] of the same molecule?
Its MIC is 0.8 to 3.2 µg/mL.

And the MIC [7]?
The MIC was 0.65 to 1.29 µM.

What about the MIC [8] of the same molecule?
The MIC was 0.323 µM (≈ 0.799 µg/mL).

What about the MIC [9] of the same molecule?
The MIC was 0.646 µM (≈ 1.6 µg/mL).

And the MIC [10]?
The MIC was 0.323 µM (≈ 0.799 µg/mL).

And the MIC [11]?
Its MIC is 1.29 µM (≈ 3.19 µg/mL).

What about the MIC [12] of the same molecule?
The MIC was 10.34 µM (≈ 25.6 µg/mL).

What about the MIC [13] of the same molecule?
The MIC was 2.58 µM (≈ 6.39 µg/mL).

And the MIC [14]?
Its MIC is 2.58 µM (≈ 6.39 µg/mL).

And the MIC [15]?
The MIC was 5.17 µM (≈ 12.8 µg/mL).

And the MIC [16]?
The MIC was 5.17 µM (≈ 12.8 µg/mL).

And the MIC [17]?
Its MIC is 1.29 µM (≈ 3.19 µg/mL).

Which “susceptibility of E. tarda” value [1] does the source give for bacitracin here?
Its value is “resistance”.

What does the source list for CCn1cc(C(=O)O)c(=O)c2cc(F)c(N3CCNCC3)cc21 [Norfloxacin]?
antimicrobial activity against E. tarda after exposure to temperature [18]: did not change; antibacterial activity at different pH values [19]: strong antibacterial activity; percentage of E. tarda stained with PI [20]: less than 1%; abnormal cells (TEM) [21]: not significantly affected; survival rate of fish ([22]; 0.5 h after E. tarda 1.0 × 10^9 CFU/mL i.p., within 2 d, 6 fish/group): 16.7%; survival rate of fish ([22]; time not stated in the sentence (survival recorded for 5 d)): 16.7%; number of bacteria in organs (blood, spleen, kidney, liver) [23]: did not decrease in any organs except the liver; histological findings in liver, kidney and intestine [24]: obvious pathological changes were found in organs; MIC ([5]; Staphylococcus hyicus, range over S. hyicus strains of Table 2, read-out: MIC): 4 to 16 µg/mL (≈ 12.5 to 50.1 µM); MIC [25]: 0.06 to 1 µg/mL (≈ 0.188 to 3.13 µM); MIC [26]: 0.5 µg/mL and 1.57 µM
